The target of one assay is CDK2/Cyclin A1 (Homo sapiens, UniProt P24941). As to conditions: 1 μM; Run 1, Run 2.
The next assay addresses T1, BMX/ETK (Homo sapiens, UniProt P51813).
T1 sequence (P51813 1-675): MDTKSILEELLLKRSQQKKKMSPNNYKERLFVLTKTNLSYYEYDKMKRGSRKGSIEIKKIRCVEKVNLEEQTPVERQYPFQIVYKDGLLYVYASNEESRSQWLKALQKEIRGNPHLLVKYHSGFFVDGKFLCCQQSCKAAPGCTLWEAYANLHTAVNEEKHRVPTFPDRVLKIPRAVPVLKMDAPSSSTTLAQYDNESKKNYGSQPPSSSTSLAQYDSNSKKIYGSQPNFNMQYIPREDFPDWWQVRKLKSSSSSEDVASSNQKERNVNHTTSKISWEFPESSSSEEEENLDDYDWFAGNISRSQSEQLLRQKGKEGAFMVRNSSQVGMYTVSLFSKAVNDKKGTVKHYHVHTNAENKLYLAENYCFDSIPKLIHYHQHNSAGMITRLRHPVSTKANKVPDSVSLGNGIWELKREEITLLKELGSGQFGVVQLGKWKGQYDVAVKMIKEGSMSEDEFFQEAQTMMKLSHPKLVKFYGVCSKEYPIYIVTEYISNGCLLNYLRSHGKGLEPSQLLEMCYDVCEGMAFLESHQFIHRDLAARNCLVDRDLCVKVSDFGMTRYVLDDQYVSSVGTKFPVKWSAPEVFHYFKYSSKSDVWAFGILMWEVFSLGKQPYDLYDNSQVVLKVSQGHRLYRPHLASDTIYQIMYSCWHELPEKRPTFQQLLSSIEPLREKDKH
The assay can be described thus: biochemical. The note with it: read-out: % enzyme activity, 1 μM; Run 1, Run 2.

Another assay deals with T2, NEK2 (Homo sapiens, UniProt P51955).
T2 sequence (P51955 1-445): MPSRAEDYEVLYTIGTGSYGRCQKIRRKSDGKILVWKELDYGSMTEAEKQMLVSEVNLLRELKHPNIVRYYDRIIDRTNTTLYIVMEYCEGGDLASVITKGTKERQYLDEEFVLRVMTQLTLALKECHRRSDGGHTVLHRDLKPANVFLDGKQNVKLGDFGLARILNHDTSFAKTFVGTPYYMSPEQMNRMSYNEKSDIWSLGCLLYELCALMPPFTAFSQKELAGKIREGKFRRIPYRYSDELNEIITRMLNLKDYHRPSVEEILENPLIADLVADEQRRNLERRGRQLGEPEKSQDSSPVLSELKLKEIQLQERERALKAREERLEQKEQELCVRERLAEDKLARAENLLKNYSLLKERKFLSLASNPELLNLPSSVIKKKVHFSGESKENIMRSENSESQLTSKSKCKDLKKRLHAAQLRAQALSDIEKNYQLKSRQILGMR
The assay can be described thus: biochemical. The note with it: read-out: % enzyme activity, 1 μM; Run 1, Run 2.

The next assay concerns the target ABL1 (Homo sapiens, UniProt P00519). The assay can be described thus: biochemical. As to conditions: read-out: % enzyme activity, 1 μM; Run 1, Run 2.
Another assay deals with MSSK1/STK23 (Homo sapiens, UniProt Q9UPE1). The assay can be described thus: biochemical. The note with it: read-out: % enzyme activity, 1 μM; Run 1, Run 2.
For the next assay, the target named is T3, NEK1 (Homo sapiens, UniProt Q96PY6).
T3 sequence (Q96PY6 1-1258): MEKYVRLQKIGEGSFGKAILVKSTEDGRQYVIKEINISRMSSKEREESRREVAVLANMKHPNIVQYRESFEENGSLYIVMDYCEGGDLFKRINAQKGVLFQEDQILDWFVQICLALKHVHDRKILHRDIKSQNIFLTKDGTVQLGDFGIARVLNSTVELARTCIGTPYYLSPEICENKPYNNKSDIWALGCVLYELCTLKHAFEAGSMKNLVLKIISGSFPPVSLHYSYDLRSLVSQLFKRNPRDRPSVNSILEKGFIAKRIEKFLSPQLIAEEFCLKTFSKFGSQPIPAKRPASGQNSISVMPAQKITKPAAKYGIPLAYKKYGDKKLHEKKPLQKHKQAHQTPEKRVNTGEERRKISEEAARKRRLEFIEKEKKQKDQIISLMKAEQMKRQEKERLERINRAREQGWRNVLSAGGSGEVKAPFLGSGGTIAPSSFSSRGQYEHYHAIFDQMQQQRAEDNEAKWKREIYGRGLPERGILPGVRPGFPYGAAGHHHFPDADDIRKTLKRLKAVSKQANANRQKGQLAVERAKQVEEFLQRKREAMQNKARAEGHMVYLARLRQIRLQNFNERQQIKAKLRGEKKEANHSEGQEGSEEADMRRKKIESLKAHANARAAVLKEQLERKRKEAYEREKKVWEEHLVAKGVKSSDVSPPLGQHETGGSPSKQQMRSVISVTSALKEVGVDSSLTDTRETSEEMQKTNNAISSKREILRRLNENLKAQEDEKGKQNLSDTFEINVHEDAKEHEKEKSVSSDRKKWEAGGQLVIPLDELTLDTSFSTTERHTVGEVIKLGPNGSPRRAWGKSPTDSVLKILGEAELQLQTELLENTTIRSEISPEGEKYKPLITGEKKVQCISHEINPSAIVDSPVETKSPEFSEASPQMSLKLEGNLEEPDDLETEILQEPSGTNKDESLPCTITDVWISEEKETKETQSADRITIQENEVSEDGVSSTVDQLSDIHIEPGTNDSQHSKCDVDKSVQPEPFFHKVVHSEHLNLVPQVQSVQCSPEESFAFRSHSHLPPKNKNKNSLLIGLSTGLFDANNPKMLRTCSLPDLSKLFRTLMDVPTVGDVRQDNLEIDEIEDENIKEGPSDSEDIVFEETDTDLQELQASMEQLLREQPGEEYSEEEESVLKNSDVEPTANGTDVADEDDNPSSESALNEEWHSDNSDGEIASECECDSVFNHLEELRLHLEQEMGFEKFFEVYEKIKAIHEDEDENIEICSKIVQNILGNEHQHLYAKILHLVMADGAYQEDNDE
The assay can be described thus: biochemical. As to conditions: read-out: % enzyme activity, 1 μM; Run 1, Run 2.

The target of a further assay is T4, P38d/MAPK13 (Homo sapiens, UniProt O15264).
T4 sequence (O15264 1-365): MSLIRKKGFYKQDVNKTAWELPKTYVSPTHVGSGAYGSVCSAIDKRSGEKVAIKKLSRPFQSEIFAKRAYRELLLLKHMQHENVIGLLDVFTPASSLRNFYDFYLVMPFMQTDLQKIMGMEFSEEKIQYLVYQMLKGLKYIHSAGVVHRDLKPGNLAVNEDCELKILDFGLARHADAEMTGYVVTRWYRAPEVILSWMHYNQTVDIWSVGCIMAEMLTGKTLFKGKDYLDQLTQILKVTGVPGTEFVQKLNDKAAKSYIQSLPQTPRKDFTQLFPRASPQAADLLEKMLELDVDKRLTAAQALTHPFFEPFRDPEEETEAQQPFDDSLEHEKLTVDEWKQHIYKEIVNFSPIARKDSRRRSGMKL
The note with it: 1 μM; Run 1, Run 2.

Chain of MSSK1/STK23 (Q9UPE1 whole entry): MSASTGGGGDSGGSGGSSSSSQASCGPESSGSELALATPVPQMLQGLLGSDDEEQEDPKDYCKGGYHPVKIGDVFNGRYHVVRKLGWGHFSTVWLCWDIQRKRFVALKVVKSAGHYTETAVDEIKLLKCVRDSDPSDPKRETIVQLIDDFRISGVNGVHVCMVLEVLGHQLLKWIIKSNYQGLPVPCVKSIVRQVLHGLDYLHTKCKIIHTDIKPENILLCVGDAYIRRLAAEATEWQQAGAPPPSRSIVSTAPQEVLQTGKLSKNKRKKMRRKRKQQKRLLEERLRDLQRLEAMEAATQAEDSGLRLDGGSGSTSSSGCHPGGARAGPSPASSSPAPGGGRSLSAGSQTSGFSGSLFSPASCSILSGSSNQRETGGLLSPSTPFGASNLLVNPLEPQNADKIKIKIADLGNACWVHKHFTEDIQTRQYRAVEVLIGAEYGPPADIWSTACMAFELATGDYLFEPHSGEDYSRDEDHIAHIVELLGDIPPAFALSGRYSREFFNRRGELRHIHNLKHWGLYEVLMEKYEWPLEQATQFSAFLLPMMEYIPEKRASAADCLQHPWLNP
Chain of ABL1 (P00519 whole entry): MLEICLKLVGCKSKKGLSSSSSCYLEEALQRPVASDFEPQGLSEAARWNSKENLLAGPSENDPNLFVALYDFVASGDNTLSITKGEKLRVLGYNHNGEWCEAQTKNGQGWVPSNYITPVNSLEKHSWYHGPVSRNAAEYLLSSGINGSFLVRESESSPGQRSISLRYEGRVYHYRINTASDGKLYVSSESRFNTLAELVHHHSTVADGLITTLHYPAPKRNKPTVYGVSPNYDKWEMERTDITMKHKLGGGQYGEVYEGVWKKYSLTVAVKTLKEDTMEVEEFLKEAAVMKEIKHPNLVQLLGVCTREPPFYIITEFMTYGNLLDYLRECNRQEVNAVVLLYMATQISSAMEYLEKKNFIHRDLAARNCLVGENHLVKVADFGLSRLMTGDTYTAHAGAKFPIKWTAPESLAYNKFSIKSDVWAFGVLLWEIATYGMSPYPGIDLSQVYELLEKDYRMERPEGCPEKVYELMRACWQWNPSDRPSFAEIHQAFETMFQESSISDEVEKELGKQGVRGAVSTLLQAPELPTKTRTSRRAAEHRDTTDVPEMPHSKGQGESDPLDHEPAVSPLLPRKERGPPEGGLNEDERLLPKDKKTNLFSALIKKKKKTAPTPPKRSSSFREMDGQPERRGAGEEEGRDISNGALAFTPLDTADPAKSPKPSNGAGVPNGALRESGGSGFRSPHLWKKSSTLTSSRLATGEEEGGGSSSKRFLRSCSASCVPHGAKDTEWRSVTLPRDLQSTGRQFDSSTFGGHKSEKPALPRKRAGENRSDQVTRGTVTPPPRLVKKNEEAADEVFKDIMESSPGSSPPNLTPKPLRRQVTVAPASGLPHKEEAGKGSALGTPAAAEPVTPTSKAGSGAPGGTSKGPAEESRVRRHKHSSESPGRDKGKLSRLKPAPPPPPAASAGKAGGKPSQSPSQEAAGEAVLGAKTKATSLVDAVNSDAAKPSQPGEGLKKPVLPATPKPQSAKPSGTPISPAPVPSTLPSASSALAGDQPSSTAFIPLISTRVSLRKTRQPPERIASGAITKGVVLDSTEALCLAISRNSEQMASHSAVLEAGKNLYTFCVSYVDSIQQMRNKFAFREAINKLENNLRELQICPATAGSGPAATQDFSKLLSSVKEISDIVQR

As to `COc1cc(-c2cncc(-c3ccc(N4C[C@@H](C)N(C)[C@@H](C)C4)cc3)c2C)cc(F)c1C(N)=O` [Compound 26c, 2-Fluoro-6-methoxy-4-(4-methyl-5-(4-((3R,5S)-3,4,5-trimethylpiperazin-1-yl)phenyl)pyridin-3-yl)benzamide], the results for the “% enzyme activity” value at CDK2/Cyclin A1 and on P38d/MAPK13 were 97.14% and 97.52%, respectively. Besides, the remaining activity at 1 µM at BMX/ETK worked out at 102%; at NEK2, 98.5%; at ABL1, 83.9%; on MSSK1/STK23, 99.8%; on NEK1 it was 88.1%.

In the case of `COc1cc(-c2cncc(-c3ccc(N4CCN(C)CC4)cc3)c2C)cc(F)c1C(N)=O` [Compound 26a, 2-Fluoro-6-methoxy-4-(4-methyl-5-(4-(4-methylpiperazin-1-yl)phenyl)pyridin-3-yl)benzamide], the “% enzyme activity” value at CDK2/Cyclin A1 was 99.67%; at P38d/MAPK13, 98.26%. Besides, the remaining activity at 1 µM on BMX/ETK came to 103%; on NEK2, 92.3%; at ABL1, 75.2%; at MSSK1/STK23 it was 99.3%; on NEK1, 87.6%.

The values above are taken from article PMC8213057, “Targeting ALK2: An Open Science Approach to Developing Therapeutics for the Treatment of Diffuse Intrinsic Pontine Glioma” (Journal of Medicinal Chemistry, 2020).
